These results are taken from patent EP3315495A1, “N,N' -[…], N,N' -DIAR[…] N,N' -DIARY[…] FOR USE IN TREATMENT AND PREVENTION OF INFLAMMATORY DISEASE” (Universität Innsbruck, priority 2016, dated 2018).

Entries after “also recorded” stand apart in the source; their conditions may differ. Marks after values point to notes of the source that are not given here.

The test system of test [1] is 5-LOX product formation in PMNL. The experiment in a line: 5-LOX product formation in PMNL stimulated with A23187 (cell-based). Further details: species or system human. Particulars: for inhibition at 1 µM: read-out: Effect on 5-LOX product formation in PMNL, % inhibition; for Effect on 5-LOX product formation in PMNL: result in words. How it is done: Briefly, first a cell-based assay allows to determine the inhibition of the 5-LOX product biosynthesis. The cell suspension contained human neutrophils (PMNL) or monocytes, wherein the cells were isolated from buffy coats obtained from healthy donors pooled by gender. An aliquot cell suspension was incubated with the candidate compound for 15 min at 37 °C. The cells are treated with calcium ionophore A23187 to stimulate 5-LOX product formation for further 10 min (37 °C), optionally in presence of various concentrations of AA. The reaction was stopped with 1 mL methanol on ice.
In both assays, product quantification was conducted with RP-HPLC and UV detection after solid phase extraction and addition of 200 ng prostaglandin B1 as internal standard.

Test [2] has as its target T1, FLAP (Homo sapiens, UniProt P20292).
T1 sequence (P20292 1-161): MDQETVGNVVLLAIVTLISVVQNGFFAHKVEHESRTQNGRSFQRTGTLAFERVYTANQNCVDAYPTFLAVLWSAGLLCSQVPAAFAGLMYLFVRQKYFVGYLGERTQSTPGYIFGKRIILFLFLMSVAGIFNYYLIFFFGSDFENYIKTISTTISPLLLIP
The settings on record: active = inhibition of product formation in cells without 5-LOX activity in the cell-free assay.
Method: The enzyme was preincubated for 15 min with the potential inhibitor on ice and subsequently exposed to 2 mM CaCl2 and 20 µM AA for 10 min at 37°C.
Effect on 5-LOX product formation and sEH activity is determined as described above. In case of observed effect on 5-LOX product formation in the cellular assay, 5-LOX activity was investigated with isolated 5-LOX.

For test [3], the target named is T2, sEH (Homo sapiens, UniProt P34913).
T2 sequence (P34913 1-555): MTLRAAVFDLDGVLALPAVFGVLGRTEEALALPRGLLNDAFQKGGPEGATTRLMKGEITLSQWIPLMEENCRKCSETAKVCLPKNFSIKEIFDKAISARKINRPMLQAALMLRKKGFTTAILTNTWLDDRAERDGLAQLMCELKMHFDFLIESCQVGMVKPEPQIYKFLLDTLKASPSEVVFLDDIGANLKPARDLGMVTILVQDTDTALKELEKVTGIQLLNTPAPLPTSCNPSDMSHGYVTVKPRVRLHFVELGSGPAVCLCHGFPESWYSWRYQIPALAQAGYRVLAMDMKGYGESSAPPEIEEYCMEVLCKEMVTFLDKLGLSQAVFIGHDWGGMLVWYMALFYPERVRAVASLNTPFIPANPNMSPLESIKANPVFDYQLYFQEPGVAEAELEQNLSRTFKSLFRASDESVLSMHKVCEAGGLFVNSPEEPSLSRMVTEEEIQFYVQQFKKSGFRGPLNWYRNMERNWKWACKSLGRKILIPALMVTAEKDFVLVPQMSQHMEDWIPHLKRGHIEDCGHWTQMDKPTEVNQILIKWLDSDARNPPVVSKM
Particulars: result in words.
Method: (§1) In brief, sEH was expressed in transfected Sf9-cells. Isolation of sEH from the cell pellet was conducted with a benzylthiosepharose matrix. […] The reaction was stopped with ZnSO4 (0.2 M) after 60 min incubation. […] Inhibitors were tested for self fluorescence. Positive controls were AUDA (12-(3-adamantan-1-yl-ureido)dodecanacid) and DCU (N,N'-dicyclohexylurea) at 10 µM.

The target in test [4] is T2, sEH. The experiment in a line: biochemical. The settings on record: for inhibition at 0.1 µM / inhibition at 1 µM: read-out: Effect on sEH activity, % inhibition.
Method: as §1
For test [5], the system named is leukotriene mediated peritonitis. The experiment in a line: Zymosan-induced peritonitis model in mice. The class given is in vivo, CD1 male mice. Particulars: intraperitoneal, 30 min prior to zymosan. How it is done:
Compound I-12 was evaluated in vivo in a peritonitis model in mice. The experimental protocols were approved by the Animal Care Committee of the University of Naples Federico II, in compliance with Italian regulations on protection of animals used for experimental and other scientific purpose (Ministerial Decree 116/92) as well as with the European Economic Community regulations (Official Journal of E.C. L 358/1 12/18/1986); protocol number: 2014/0018760 27th February 2014. CD1 male mice with an age of six to eight weeks were investigated. The leukotriene mediated peritonitis is induced by injection of 1 mg zymosan in 50 µl saline solution. 30 min prior to induction, the candidate compound was applied as intraperitoneal injection in different concentrations as well as DMSO as negative control and positive controls (MK886, zileuton). Results are given in Table 3, wherein […] and LTB 4 levels are measured as well as vascular permeability (VP) and the cell recruitment in the peritoneal cavity (Cell Rec). Table 3: Results from an in vivo study with a mouse peritonitis model
In Table 3, values in percent indicate the percent inhibition in respect to the vehicle control. Statistical significance is determined via ANOVA Bonferroni, wherein * indicates p<0.05; ** indicates p<0.01; *** indicates p<0.001 vs. vehicle. N indicates the number of investigated mice.

For the compound `Cc1cccc(OCC(=O)Nc2ccc(OCc3nc4ccccc4s3)cc2C)c1` [Compound I12-11, reference compound], in test [1] (Homo sapiens, PMNL), the inhibition at 1 µM was determined as 97%. Further, the “Effect on FLAP activity” value in test [2] is recorded as “active”. The “Effect on sEH activity” value in test [3] is “did not show sEH inhibition; also recorded: inactive”.

For `Cc1cc(OCc2nc3ccccc3s2)ccc1NC(=O)NC1CCCCC1` [Compound I12-2, N-[4-(2-benzothiazolylmethoxy)-2-methylphenyl]-N'-cyclohexyl-urea, reference compound], the “Effect on 5-LOX product formation in PMNL” value (“Effect … in PMNL” for short) in test [1] was “did not show an effect; also recorded: inactive”. In test [2], the “Effect on FLAP activity” value is “did not show an effect; also recorded: inactive”. Moreover, in test [4], the inhibition at 0.1 µM turned out to be 75%.

As for `CCNC(=O)Nc1ccc(OCc2nc3ccccc3s2)cc1C` [Compound I12-7, reference compound], the “Effect … in PMNL” value in test [1] was “inactive”. Besides, the “Effect on FLAP activity” value in test [2] is “inactive”. Besides, the “Effect on sEH activity” value in test [3] was “inactive”.

For the compound `Cc1cc(OCc2nc3ccccc3s2)ccc1NC(=O)c1cccc(F)c1` [Compound I12-5, reference compound], the “Effect … in PMNL” value in test [1] is “inactive”. Also, in test [2], the “Effect on FLAP activity” value is “inactive”. Besides, the “Effect on sEH activity” value in test [3] was “inactive”.

In the case of `O=C(Nc1ccc(OCc2nc3ccccc3o2)cc1)Nc1ccc(Cl)c(Cl)c1` [TS04], the “Effect … in PMNL” value in test [1] was “inactive”. Also, in test [2], the “Effect on FLAP activity” value was “inactive”. Besides, the inhibition at 1 µM in test [4] was around 96%.

Consider `Cc1cccc(OCc2nc3ccccc3s2)c1C` [Compound I12-13, reference compound], for which the “Effect … in PMNL” value in test [1] is “inactive”. Moreover, in test [2], the “Effect on FLAP activity” value is “inactive”. For the same compound, the “Effect on sEH activity” value in test [3] was “inactive”.

As for `CC(C)c1ccc2c(c1)c(SC(C)(C)C)c(CC(C)(C)C(=O)O)n2Cc1ccc(Cl)cc1` [MK886, reference compound], in test [5] (1 mg), the “Cell Rec (cell recruitment in the peritoneal cavity)” value is listed as 4.54±0.326 10^6/ml; the “Cell Rec, percent inhibition in respect to the vehicle control” value turned out to be 41%***; the LTB4 turned out to be 258 ± 48 pg/mL; the “LTB4, percent inhibition in respect to the vehicle control” value is recorded as 63%**. In test [5] (1 mg), the LTC4 amounted to 24.2 ± 2.98 ng/mL and the “LTC4, percent inhibition in respect to the vehicle control” value is 73%***. Besides, in test [5] (3 mg), the “VP (vascular permeability)” value amounted to 0.303±0.018 abs 610 nm and the “VP, percent inhibition in respect to the vehicle control” value is 51%.

For the compound `Cc1cc(OCc2nc3ccccc3o2)ccc1NC(=O)Nc1ccc(Cl)c(Cl)c1` [SE04, N-[4-(2-Benzoxazolylmethoxy)-2-methylphenyl]-N'-(3,4-dichlorophenyl)-urea], the inhibition at 1 µM in test [1] (Homo sapiens, PMNL) is around 85%; in test [4], around 87%.

As for `CSc1ccc(N/N=C/c2nc3ccccc3s2)cc1` [Compound I12-9, reference compound], the “Effect … in PMNL” value in test [1] is “inactive”. For the same compound, the “Effect on FLAP activity” value in test [2] was “inactive”. In addition, the “Effect on sEH activity” value in test [3] is “inactive”.

Regarding `Cc1cc(OCc2nc3ccccc3s2)ccc1NC(=O)c1ccc(Cl)cc1` [Compound I12-12, reference compound], the “Effect … in PMNL” value in test [1] is “inactive”. Besides, in test [2], the “Effect on FLAP activity” value was “inactive”. Moreover, the “Effect on sEH activity” value in test [3] is “inactive”.

`CC(c1cc2ccccc2s1)N(O)C(N)=O` (stereo not drawn) [ZIL, zileuton, reference compound]: in test [5] (10 mg), the LTC4 was 56.5 ± 4.58 ng/mL; the “LTC4, percent inhibition in respect to the vehicle control” value came out at 36%*; the “VP (vascular permeability)” value was found to be 0.639±0.104 abs 610 nm.

With `Cn1c(CCc2ccc(NC(=O)Nc3cccc(Cl)c3)cc2)nc2ccccc21` [Compound L8], in test [1], the “Effect … in PMNL” value is “inactive”. Moreover, the “Effect on FLAP activity” value in test [2] was “inactive”. The inhibition at 0.1 µM in test [4] was 65%.

On to `CCn1c(COc2ccc3ccccc3c2)nc2ccccc21` [Compound I12-1, reference compound], for which the “Effect … in PMNL” value in test [1] was “inactive”. In test [2], the “Effect on FLAP activity” value was “inactive”. Also, in test [3], the “Effect on sEH activity” value is “inactive”.

Turning to `Cc1cc(OCc2nc3ccccc3[nH]2)ccc1NC(=O)Nc1ccc(Cl)c(Cl)c1` [EZ14, N-[4-(1H-Benzimidazol-2-ylmethoxy)-2-methylphenyl]-N'-(3,4-dichlorophenyl)-urea], the IC50 in test [1] (Homo sapiens, PMNL, read-out: Effect on 5-LOX product formation in PMNL, IC50) was determined as 770 nM; in test [4], 55 nM.

In the case of `COc1cc(/C=N/NC(=O)c2ccc(CSc3nc4ccccc4s3)o2)cc(Br)c1O` [Compound I12-8, reference compound], the “Effect … in PMNL” value in test [1] was “inactive”. The “Effect on FLAP activity” value in test [2] is “inactive”. Besides, the inhibition at 0.1 µM in test [4] worked out at 30%.

For `COc1cccc(NC(=O)Nc2ccc(CCc3nc4ccccc4[nH]3)cc2)c1` [Compound L1], in test [1], the “Effect … in PMNL” value was “inactive”. Further, the “Effect on FLAP activity” value in test [2] was “inactive”. The inhibition at 0.1 µM in test [4] stood at 30%.

With `O=C(Nc1ccc(F)cc1)Nc1ccc(CCc2nc3ccccc3[nH]2)cc1` [Compound L6], the “Effect … in PMNL” value in test [1] was “inactive”. In test [2], the “Effect on FLAP activity” value is “inactive”. Further, the inhibition at 0.1 µM in test [4] amounted to 55%.

For `COc1ccc(NC(=O)Nc2ccc(CCc3nc4ccccc4[nH]3)cc2)cc1` [Compound L5], in test [1], the “Effect … in PMNL” value is “inactive”. Further, the “Effect on FLAP activity” value in test [2] is “inactive”. The inhibition at 0.1 µM in test [4] turned out to be 50%.

For the compound `O=C(Nc1ccc(CCc2nc3ccccc3[nH]2)cc1)Nc1cccc(Cl)c1` [Compound L2], in test [1], the “Effect … in PMNL” value is “inactive”. The “Effect on FLAP activity” value in test [2] was “inactive”. Also, the inhibition at 0.1 µM in test [4] turned out to be 50%.

Take `O=C(Nc1ccccc1)Nc1ccc(CCc2nc3ccccc3[nH]2)cc1` [Compound L3]: the “Effect … in PMNL” value in test [1] was “inactive”. The “Effect on FLAP activity” value in test [2] was “inactive”. Further, the inhibition at 0.1 µM in test [4] is 30%.

Regarding `Cc1cccc(NC(=O)Nc2ccc(OCc3nc4ccccc4s3)cc2C)c1` [Compound I12-3], the inhibition at 1 µM in test [1] (Homo sapiens, PMNL) is 100%. In addition, in test [2], the “Effect on FLAP activity” value is “active”. In test [4], the inhibition at 0.1 µM worked out at 55%.

Consider `Cc1cc(OCc2nc3ccccc3s2)ccc1NC(=O)Nc1cccc2ccccc12` [Compound I12-4], for which the inhibition at 1 µM in test [1] (Homo sapiens, PMNL) amounted to 70%. For the same compound, the “Effect on FLAP activity” value in test [2] is “active”. The “Effect on sEH activity” value in test [3] is “inactive”.

In the case of `O=C(Nc1ccc(Cl)cc1)Nc1ccc(CCc2nc3ccccc3[nH]2)cc1` [Compound L4], the “Effect … in PMNL” value in test [1] is “inactive”. Also, in test [2], the “Effect on FLAP activity” value is “inactive”. Further, the inhibition at 0.1 µM in test [4] was found to be 78%.

As to `CC(C)c1ccc(OCc2nc3ccccc3[nH]2)cc1` [Compound I12-10, reference compound], the “Effect … in PMNL” value in test [1] is “inactive”. Moreover, in test [2], the “Effect on FLAP activity” value was “inactive”. Further, the “Effect on sEH activity” value in test [3] is “inactive”.

Take `Cc1cc(OCc2nc3ccccc3s2)ccc1NC(=O)COc1ccc(Cl)cc1Cl` [Compound I12-6, reference compound]: in test [1], the “Effect … in PMNL” value was “inactive”. In addition, in test [2], the “Effect on FLAP activity” value is “inactive”. Further, the “Effect on sEH activity” value in test [3] was “inactive”.
